US20260165350A1, “FLAVONOID COMPOSITIONS AND USES THEREOF” (FIRMENICH SA, priority 2022, published 2026)
Each block holds one molecule with its values, some of them ahead of it.

What was measured:
Assay type in all cases: physicochemical
[1] = Solvent comparison: visual observation of naringenin dissolution, reassessed after three months; set-up: key: X: Dissolved; ◯: Partially dissolved, with sediments observed; #: Not dissolved; *: reprecipitated
Method: Several solvents and solvent blends were prepared after which a measured amount of naringenin was added and mechanically agitated. Each mixture was then visually observed for dissolution. All samples were stored at room temperature protected from direct light and were reassessed for stability after a period of three months.

[2] = Stability of naringenin solutions stored three months at room temperature; set-up: key: X: Dissolved; ◯: Partially dissolved, with sediments observed; #: Not dissolved; *: reprecipitated; settings: n-Propyl alcohol
From the text: (§1) Naringenin was mixed with different solvents and heated until the product has completely dissolved. Subsequently, the samples were left to cool down to room temperature and stored over a period of three months.

[3] = Solubility at 25° C. from transparency during a heating ramp (Crystalline PV), exponential fit
Method: Naringenin was mixed with different solvents and mixtures of solvent and transferred to an 8-mL vial equipped with an overhead stirrer. The sample was placed in a Crystalline PV instrument (Technobis, The Netherlands). A heating step was carried with a heating ramp of +0.1° C./min under mechanical stirring, and the samples were monitored by following transparency via a LED light beam that passes through the vial. Full (100%) transparency is attained when Naringenin is completely dissolved in the solvent. On the other hand, when the measured values of transparency are below 100% the dissolution process is still incomplete. Once the signal has attained 100% transparency, the dissolution process was complete and the respective temperature was taken as the solubilization temperature.
For each solvent or mixture of solvent, the measured solubility as a function of temperature has been fitted to an exponential function. The solubility at 25° C. was obtained by extrapolation or interpolation of this exponential function.
The same method as described in Example 3 was used to determine the solubility of Phloretin at 25° C.

[4] = Stability of naringenin solutions stored three months at room temperature; set-up: key: X: dissolved; *: reprecipitated
From the text: as §1

[5] = (D)-Carvone, naringenin 15% (w/w)
[6] = (L)-Carvone + isopropyl alcohol (50:50), naringenin 10% (w/w)
[7] = (L)-Carvone, naringenin 10% (w/w)
[8] = Carvone + isopropyl alcohol + benzyl alcohol (20:40:40), naringenin 10% (w/w)
[9] = Ethanol + benzyl alcohol (50:50), naringenin 10% (w/w)
[10] = Ethyl lactate + Glycerol 20%, naringenin 10% (w/w)
[11] = Ethyl lactate, naringenin 10% (w/w)
[12] = Isopropyl alcohol + benzyl alcohol (50:50), naringenin 10% (w/w)
[13] = Isopropyl alcohol, naringenin 10% (w/w)
[14] = Lactic acid, naringenin 5% (w/w)
[15] = Mint Spicata (60% Carvone), naringenin 6% (w/w)
[16] = Mint Spicata China (80% Carvone) + isopropyl alcohol (60:40), naringenin 15% (w/w)
[17] = Mint Spicata China (80% Carvone), naringenin 10% (w/w)
[18] = Propanol NAT, naringenin 6% (w/w)
[19] = Propylene glycol, naringenin 10% (w/w)
[20] = (L)-Carvone 50% + Isopropyl alcohol 50%
[21] = n-Propyl alcohol, 4% of Naringenin
[22] = n-Propyl alcohol, 5% of Naringenin
[23] = n-Propyl alcohol, 6% of Naringenin

Observation [1, 5]: X | Observation (after 3 months at RT) [1, 5]: X | Observation [1, 6]: X | Observation (after 3 months at RT) [1, 6]: X | Observation [1, 7]: X | Observation (after 3 months at RT) [1, 7]: X | Observation [1, 8]: X | Observation (after 3 months at RT) [1, 8]: X | Observation [1, 9]: X | Observation (after 3 months at RT) [1, 9]: * | Observation [1, 10]: ◯ | Observation (after 3 months at RT) [1, 10]: ◯ | Observation [1, 11]: # | Observation (after 3 months at RT) [1, 11]: # | Observation ([1]; Glycerol, naringenin 5% (w/w)): # | Observation (after 3 months at RT) ([1]; Glycerol, naringenin 5% (w/w)): # | Observation [1, 12]: X | Observation (after 3 months at RT) [1, 12]: * | Observation [1, 13]: # | Observation (after 3 months at RT) [1, 13]: # | Observation [1, 14]: # | Observation (after 3 months at RT) [1, 14]: # | Observation [1, 15]: X | Observation (after 3 months at RT) [1, 15]: X | Observation [1, 16]: X | Observation (after 3 months at RT) [1, 16]: X | Observation [1, 17]: X | Observation (after 3 months at RT) [1, 17]: X | Observation [1, 18]: ◯ | Observation (after 3 months at RT) [1, 18]: ◯ | Observation [1, 19]: # | Observation (after 3 months at RT) [1, 19]: # | Solution state (after three months at RT) ([2]; 8% of Naringenin): * | Solution state (after three months at RT) ([2]; 10% of Naringenin): * | Solution state (after three months at RT) ([2]; 12% of Naringenin): * | Solubility of Naringenin at 25° C. (%) ([3]; (D)-Carvone 100%): 8.5% | Solubility of Naringenin at 25° C. (%) ([3]; (L)-Carvone 30% + n-Propyl alcohol 70%): 11.7% | Solubility of Naringenin at 25° C. (%) ([3]; (L)-Carvone 50% + Ethanol 50%): 18.7% | Solubility of Naringenin at 25° C. (%) [3, 20]: 16.6% | Solubility of Naringenin at 25° C. (%) ([3]; (L)-Carvone 50% + Propylene glycol 50%): 13.0% | Solubility of Naringenin at 25° C. (%) ([3]; (L)-Carvone 50% + n-Propyl alcohol 50%): 14.9% | Solubility of Naringenin at 25° C. (%) ([3]; (L)-Carvone 70% + n-Propyl alcohol 30%): 15.7% | Solubility of Naringenin at 25° C. (%) ([3]; (L)-Carvone 90% + n-Propyl alcohol 10%): 13.0% | Solubility of Naringenin at 25° C. (%) ([3]; (L)-Carvone 100%): 8.5% | Solubility of Naringenin at 25° C. (%) ([3]; Benzyl alcohol 100%): 3.9% | Solubility of Naringenin at 25° C. (%) ([3]; Ethyl lactate 100%): 5.3% | Solubility of Naringenin at 25° C. (%) ([3]; Eucalyptol 100%): 1.2% | Solubility of Naringenin at 25° C. (%) ([3]; Glycerol 100%): 0.1% | Solubility of Naringenin at 25° C. (%) ([3]; Isopropyl alcohol 50% + Benzyl alcohol 50%): 6.9% | Solubility of Naringenin at 25° C. (%) ([3]; Isopropyl alcohol 100%): 5.2% | Solubility of Naringenin at 25° C. (%) ([3]; Limonene 100%): <0.1% | Solubility of Naringenin at 25° C. (%) ([3]; Mint Spicata (80% carvone) 50% + Propylene glycol 50%): 12.0% | Solubility of Naringenin at 25° C. (%) ([3]; Mint Spicata (80% carvone) 60% + Isopropyl alcohol 40%): 15.4% | Solubility of Naringenin at 25° C. (%) ([3]; Mint Spicata (80% carvone) 100%): 7.5% | Solubility of Naringenin at 25° C. (%) ([3]; Neobee 100%): 0.1% | Solubility of Naringenin at 25° C. (%) ([3]; Propylene glycol 100%): 3.6% | Solubility of Naringenin at 25° C. (%) ([3]; Triethyl citrate 100%): 1.7% | Solubility of Naringenin at 25° C. (%) ([3]; n-Propyl alcohol 100%): 4.2% | Solution state (after three months at RT) ([4]; (L)-Carvone, 4% of Naringenin): X | Solution state (right after heating) ([4]; (L)-Carvone, 4% of Naringenin): X | Solution state (after three months at RT) ([4]; (L)-Carvone, 5% of Naringenin): X | Solution state (right after heating) ([4]; (L)-Carvone, 5% of Naringenin): X | Solution state (after three months at RT) ([4]; (L)-Carvone, 6% of Naringenin): X | Solution state (right after heating) ([4]; (L)-Carvone, 6% of Naringenin): X | Solution state (after three months at RT) ([4]; (L)-Carvone, 8% of Naringenin): X | Solution state (right after heating) ([4]; (L)-Carvone, 8% of Naringenin): X | Solution state (after three months at RT) ([4]; (L)-Carvone, 10% of Naringenin): X | Solution state (right after heating) ([4]; (L)-Carvone, 10% of Naringenin): X | Solution state (after three months at RT) ([4]; (L)-Carvone, 12% of Naringenin): X | Solution state (right after heating) ([4]; (L)-Carvone, 12% of Naringenin): X | Solution state (after three months at RT) [4, 21]: X | Solution state (right after heating) [4, 21]: X | Solution state (after three months at RT) [4, 22]: X | Solution state (right after heating) [4, 22]: X | Solution state (after three months at RT) [4, 23]: X | Solution state (right after heating) [4, 23]: X | Solution state (right after heating) ([4]; n-Propyl alcohol, 8% of Naringenin): X | Solution state (right after heating) ([4]; n-Propyl alcohol, 10% of Naringenin): X | Solution state (right after heating) ([4]; n-Propyl alcohol, 12% of Naringenin): X
Structure (SMILES): O=C1C[C@@H](c2ccc(O)cc2)Oc2cc(O)cc(O)c21 [Naringenin, naringenin]

Solubility of Phloretin at 25° C. (%) ([3]; (L)-Carvone 50% + Ethanol 50%): 21.9% | Solubility of Phloretin at 25° C. (%) [3, 20]: 22.8% | Solubility of Phloretin at 25° C. (%) ([3]; (L)-Carvone 100%): 7.7% | Solubility of Phloretin at 25° C. (%) ([3]; Ethanol 100%): 15.9% | Solubility of Phloretin at 25° C. (%) ([3]; Isopropyl alcohol 100%): 12.7% | Solubility of Phloretin at 25° C. (%) ([3]; Propylene glycol 100%): 8.9%
Structure (SMILES): O=C(CCc1ccc(O)cc1)c1c(O)cc(O)cc1O [Phloretin, phloretin]
